In article PMC6488579 (2019) one finds KD and binding data, which are given here for four molecules.

Test [1] relates to DEX10 (DNA, aptamer) ATATCATATGCTCCAATTGGACAGCTGGCCGCGAAGCGAGACACGTATAAGGTACTATACGGCTGGCATATGTATCTGATATTACACTTGCGATCT
Description: fluorescence bead-binding saturation, eluted DNA. The note with it: immobilised compound (DXN Sepharose 6β beads); binding buffer; aptamer 50-400 nM.

Test [2] has as its system HOC6-S-S-C6-DEX04 (DNA, aptamer) ACACGACGAGGGACGAGGAGTACTTGCCAACGATAACGTCGTTGGATCTGTCTGTGCCC
Description: electrochemical impedance, Rct change.

Test [3] concerns DEX01 (DNA, aptamer) ATATCATATGCTCCAATTACACCCCACGTAGTGTCACAGCACGCTTATAGTAAGTGAAGTGACGGGTTGCTGATGTGATATTACACTTGCGATCT
Description: fluorescence bead-binding saturation, eluted DNA. Particulars: immobilised compound (DXN Sepharose 6β beads); binding buffer; aptamer 50-400 nM.

Test [4] deals with DEX04 (DNA, aptamer) ATATCATATGCTCCAATTACACGACGAGGGACGAGGAGTACTTGCCAACGATAACGTCGTTGGATCTGTCTGTGCCCATATTACACTTGCGATCT
Description: fluorescence bead-binding saturation, eluted DNA. The note with it: immobilised compound (DXN Sepharose 6β beads); binding buffer; aptamer 50-400 nM.

The subject of test [5] is DEX03 (DNA, aptamer) ATATCATATGCTCCAATTACGCGTAGGGATGTGTAAGGTCTGTACACCTCGGTTTACTCTATGCTTCGCATATTGTCGATATTACACTTGCGATCT
Description: fluorescence bead-binding saturation, eluted DNA. The note with it: immobilised compound (DXN Sepharose 6β beads); binding buffer; aptamer 50-400 nM.

Test [6] relates to DEX05 (DNA, aptamer) ATATCATATGCTCCAATTACAGGCTTGGATTAGTGTATCCAACTAGTATCGTGTATACTAGGCCCTTGCTACCCTGTGATATTACACTTGCGATCT
Description: fluorescence bead-binding saturation, eluted DNA. Particulars: immobilised compound (DXN Sepharose 6β beads); aptamer up to 400 nM; NB [sic].

Test [7] has as its system DEX06 (DNA, aptamer) ATATCATATGCTCCAATTACACACGAAACACAAGCAGTGAGACTGCCTACGTCCGTAGTTGTGTTGAGTTTGCTCTCCATATTACACTTGCGATCT
Description: fluorescence bead-binding saturation, eluted DNA. Particulars: immobilised compound (DXN Sepharose 6β beads); aptamer up to 400 nM; NB [sic].

Test [8] relates to DEX04 (DNA, aptamer) ATATCATATGCTCCAATTACACGACGAGGGACGAGGAGTACTTGCCAACGATAACGTCGTTGGATCTGTCTGTGCCCATATTACACTTGCGATCT
Description: fluorescence bead-binding, eluted DNA. The note with it: 150 nM aptamer.

[9] abbreviates: highest tested 1 nM (below detection limit for DXN), measured in 10 mM PBS pH 7.4.

Molecules are shown by their SMILES.

Take `C[C@@H]1C[C@H]2[C@@H]3CCC4=CC(=O)C=C[C@]4(C)[C@@]3(F)[C@@H](O)C[C@]2(C)[C@@]1(O)C(=O)CO`: the KD in test [1] was determined as 715 nM; in test [3], 15.71 nM; in test [4], 18.35 nM; in test [5], 72.83 nM. Further, the binding entry in test [2] (free DXN 50 and 100 nM, 10 mM PBS pH 7.4, 10 mM ferri/ferrocyanide) is “yes”; in test [6], “no”; in test [7], “no”.

Turning to `CC(=O)[C@H]1CC[C@H]2[C@@H]3CCC4=CC(=O)CC[C@]4(C)[C@H]3CC[C@]12C`, the binding result in test [8] (immobilised compound (P4 beads, 20 µL, 4.4 nmol/mL)) is given as “no”; in test [2] (setting [9]), “no”.

As to `C#C[C@]1(O)CC[C@H]2[C@@H]3CCC4=CC(=O)CC[C@@H]4[C@H]3CC[C@@]21C`, the binding entry was “no” in test [8] (immobilised compound (NET beads, 5 µL, 6–14 µmol/mL)) and “no” in test [2] (setting [9]).

As for `C[C@]12CC[C@@H]3c4ccc(O)cc4CC[C@H]3[C@@H]1CC[C@@H]2O`, the binding result in test [8] (immobilised compound (E2 beads, 5 µL, 6–14 µmol/mL)) was “no”; in test [2] (setting [9]) it was “no”.
